Test results as given in US6391304B1, “Peptides derived from the ENV gene of the feline immunodeficiency virus and their applications” (Centre National de la Recherche Scientifique, priority 1997, dated 2002).
“And” between values parts separate entries of the source, which are not always exact repeats. Equal values may be shown once. “Also recorded” adds a separate entry of the source. Ends that are not written are not given here.

Tests used:
[1] = tested on: immobilized peptide (SU2, SU5, TM2 or TM3-19); experiment: ELISA anti-peptide titre during the immunization of cats; type: in vivo; settings: individual cats immunized with KLH-coupled peptide; absorbance at 405 nm greater than 0.1
Experimental: (§1) Groups of four cats 4½ months old are immunized subcutaneously with 120 μg of FIV peptide (approximately 250 μg of peptide coupled to KLH (keyhole limpet haemocyanin)), emulsified in complete Freund's adjuvant.
(§2) Four repeat immunizations are administered subcutaneously in an incomplete Freund's adjuvant, generally at intervals of 2-3 weeks, although the interval between the last 2 […] was 7 weeks.
The production on of antibodies is evaluated before the test by means of an ELISA using an immobilized peptide (SU2, SU5, TM2 or TM3-19) and immunoprecipitation. After the test, the seroconversion is monitored by an ELISA using immobilized envelope peptides and a recombinant FTV capsid protein.
The ELISA with the immobilized envelope peptides corresponding to the immunogenic domains SU2 and TM2 and with the immobilized recombinant p25 protein (FIV capsid protein) is carried out as described in Avraméas A. et al. (Res. Virol., 1993, 144, 209-218).
Microplates (Immunolon II, Dynatech) are coated with 0.5 μg/well for the peptides and with 0.1 μg/well for the p25 protein.
The tests are carried out in duplicate and the results are expressed as average values.
The anti-peptide titres before the test are expressed as the logarithm of the inverse of the last dilution of serum which gives an absorbance (at 405 nm) of greater than 0.1.

CD4+ T lymphocytes = experiment: Counting of circulating CD4+ T lymphocytes by flow cytometry; type: in vivo, cats; settings: acute infection with FIV Wo, FIG. 2
Experimental: Counting of the CD4^+ T lymphocytes is carried out at regular intervals before the test, on the day of the test and at regular intervals during the acute infection.
The CD4^+ T lymphocytes are counted by flow cytometry, using monoclonal antibodies (Clinisciences).
To evaluate the effect of the immunization on the pathology associated with a primary infection, circulating CD4^+ lymphocytes are counted before and after the test with the FIV Wo strain.

FIV Wo isolate [2] = experiment: Plasmatic viral load by competitive RT-PCR after the virulence test; type: in vivo, cats; settings: for course of the primary infection (viral RNA in plasma, viral dissemination): after test with 10 CID50 of Wo isolate, relative to control cats, FIG. 3
Experimental: as §1, §2
(§3) The cats are subjected to a virulence test, one week after the final immunization, by means of an intraperitoneal inoculation of 10 CID50 of FIV Wo isolate, one CID50 corresponding to the dose capable of infecting 50% of the cats.
The plasma is filtered (0.45 μm) and the RNA not associated with cells is extracted directly from the filtered plasma using the Viral RNA kit (Qiagene) and eluted in 50 μl of water according to the manufacturer's instructions, and the RNA is then divided into aliquots and stored at −80° C.
A conserved region of the FIV gag gene is selected as a target sequence for the reverse transcription of the competitive RNA and the overlapping PCR amplification.
For the synthesis of the cDNA, 2.5 μl of viral RNA are mixed with 2.5 μl containing different numbers of copies of competitive RNA; typically, the various samples of competitive RNA are prepared using 5 semi-logarithmic dilutions, straddling the number of copies estimated in the biological sample.
The RNA is denatured at 65° C. for 5 minutes and immediately placed on ice. The reagents for the reverse transcription (15 μl) are added.
The final reaction mixtures contain 0.3 U/ml of random hexanucleotides (sequences of 6 randomly aligned nucleotides which make it possible theoretically to amplify any RNA fragment) (Pharmcia), 0.5 mM of dNTP, 10 mM of DTT, 1× of commercial buffer (Gibco BRL) and 100 U of Superscript II (Glbco BRL), in a volume of 20 μl.
The reactions are first carried out at 25° C. for 10 minutes to promote the hybridization of the primers, and then at 42° C. for 50 minutes. The reverse transcriptase is inactivated by incubation at 95° C. for 5 minutes.
The highly conserved sequences are selected as primers. The complementary DNA is amplified by overlapping PCR, using:
For the first amplification, the PCR reagents (80 μl) are added as a mixture with 20 μl of cDNA.
The DNA is denatured at 94° C. for 3 minutes, subjected to 28 cycles of amplification (94° C. 30 s/55° C. 30 s/72° C. 30 s) and to an elongation at 72° C. for 7 minutes.
For the overlapping amplification, 2 μl of the product of the first amplification is transferred into 98 μl of reaction mixture containing 200 μM of dNTP, 1.5 mM of MgCl2, 0.5 μM of each internal primer, 1× of commercial buffer (Gibco BRL) and 0.25 U of Taq polymerase (Gibco BRL).
The DNA is denatured at 94° C. for 3 minutes, subjected to 28 cycles of amplification (94° C. 30 s/52° C. 30 s/72° C. 30 s) and to an elongation at 72° C. for 7 minutes.
The amplification products (10 μl ) are subjected to electrophoresis on 2.75% agarose gel.
Digital images of the gels stained with ethidium bromide are obtained using the Appligene Imager and the densitometry analyses are carried out with the Image NIH software. The density of the competitive product is adjusted as a function of the difference between the length of the native sequence and that of the competitive sequence.
The logarithm of the ratio:density or competitive product/density of the native product, is plotted as a function of the logarithm of the number of copies of competitive RNA added to each reaction.
The best adjustment is determined by the least-squares method and the number of copies of native RNA corresponds to the intersection of the axis of the Xs (Piatak M. Jr. et al., Biotechniques, 1993, 14, 70-80).
The cumulative area under the curve (Dawson J., Drug Information J., 1994, 28, 723-732) is calculated from graphs illustrating the ratio: copies of viral RNA/ml of plasma/time, and compared with the Mann-Whitney test.

FIV Wo isolate [3] = experiment: Plasmatic viraemia by isolation of the virus in PBM cell culture; type: in vivo, cats
Description: as §3
The plasmatic viraemia is quantified by culturing PBM cells (Ho D. D. et a., N. Engl. J. Med., 1989, 321, 1621-1625).
The infection is estimated by determining the p25 by ELISA (Petcheck, IDEXX) in culture supernatants, obtained 14 and 21 days after the inoculation of different volumes of plasma (0.2, 2, 10, 40, 200 or 1000 μl). The final plasmatic dilution giving a positive culture is considered as the limit point.
The plasmatic viraemia is expressed as TCDID50/ml of plasma (→doses capable of infecting 50% of the tissue cultures).
For the cats immunized with the TM3-19 peptide and the control cats, the plasmatic viral load is evaluated 3 weeks after the test by isolating the virus.

[4] = 3 weeks after the test with 10 CID50 of FIV Wo, individual cats

Substance: KKGLQQLQEWEDWVGWIGN [TM3-19, 19-amino-acid fragment of the TM3 domain of the FIV Wo Env transmembrane glycoprotein (759-777)]
- Anti-peptide titre, 1st injection [1]: 4.71 logarithm of the inverse of the last dilution of serum and 5.01 logarithm of the inverse of the last dilution of serum and 5.31 logarithm of the inverse of the last dilution of serum
- Anti-peptide titre, 2nd injection [1]: 4.71 logarithm of the inverse of the last dilution of serum and 5.31 logarithm of the inverse of the last dilution of serum and 5.01 logarithm of the inverse of the last dilution of serum and 3.20 logarithm of the inverse of the last dilution of serum
- Anti-peptide titre, Day of the test [1]: 4.40 logarithm of the inverse of the last dilution of serum (3×) and 4.71 logarithm of the inverse of the last dilution of serum
- number of CD4+ lymphocytes after the infection (CD4+ T lymphocytes): does not show a large decrease
- Plasmatic viraemia, RT-PCR (FIV Wo isolate [2]; [4]): undetectable (2×) and 1.19 × 10^7 copies of viral RNA/ml of plasma and 5.56 × 10^6 copies of viral RNA/ml of plasma
- course of the primary infection (viral RNA in plasma, viral dissemination) (FIV Wo isolate [2]): generally different from that observed with the control cats; also recorded: the infection in the other 3 cats of this group appears in a retarded manner; also recorded: significantly retards the viral dissemination
- reduction in the viral load relative to the control cats, Mann-Whitney test p (FIV Wo isolate [2]; area under the cumulative curve at 3 weeks and 4 weeks after the test): 0.02
- detection of plasmatic viraemia during the measurement period (FIV Wo isolate [2]; cat 348): not possible to detect a plasmatic viraemia in one of the cats (348)
- number of copies of viral RNA observed in plasma (maximum) (FIV Wo isolate [2]; primary infection, measurement period): ≤ 3.1×10^6 copies/ml
- Plasmatic viraemia, PBMC culture (FIV Wo isolate [3]; [4]): 1 TCID50/ml of plasma (3×) and 1 × 10^2 TCID50/ml of plasma
- reduction in the level of infectious virus in the plasma (FIV Wo isolate [3]; three-quarters of the cats, 3 weeks after the test, versus control cats): about 3 logs

Substance: SU2: peptide of the SU2 domain of the FIV surface envelope glycoprotein, SEQ ID NO: 2, used as immunogen (RAISSWKQRNRWEWRPD)
- Anti-peptide titre, 1st injection [1]: 4.40 logarithm of the inverse of the last dilution of serum and 5.31 logarithm of the inverse of the last dilution of serum and 4.71 logarithm of the inverse of the last dilution of serum and 5.01 logarithm of the inverse of the last dilution of serum
- Anti-peptide titre, 2nd injection [1]: 4.71 logarithm of the inverse of the last dilution of serum and 5.01 logarithm of the inverse of the last dilution of serum (2×) and 5.31 logarithm of the inverse of the last dilution of serum
- Anti-peptide titre, Day of the test [1]: 5.31 logarithm of the inverse of the last dilution of serum and 4.71 logarithm of the inverse of the last dilution of serum and 5.61 logarithm of the inverse of the last dilution of serum and 5.01 logarithm of the inverse of the last dilution of serum
- number of CD4+ lymphocytes after the infection (CD4+ T lymphocytes): gradual reduction
- course of the primary infection (viral RNA in plasma, viral dissemination) (FIV Wo isolate [2]): does not appear to modify the course of the primary infection; also recorded: do not modify the course of the infection
